Test results published in PubChem BioAssay (NCI).
Several values for one entry are separate records, joined by “and”; a condition that tells them apart may be missing. Equal values may be shown once.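 Growth conditions: 96-well plates. Treatment: test compound, 48 hours, 5 concentrations. Analysis: linear interpolation between bracketing concentrations; unreached endpoints set to highest concentration. The concentration for 50% growth inhibition is given as GI50. TGI: total growth inhibition.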

Assays:
Assay in all cases: NCI-60 cell line screen, 48 h
HCT-15 colon = tested on: HCT-15 colon
K-562 leukemia = tested on: K-562 leukemia
OVCAR-3 ovarian = tested on: OVCAR-3 ovarian
SN12C renal = tested on: SN12C renal
HOP-62 NSCLC = tested on: HOP-62 NSCLC
NCI-H522 lung = tested on: NCI-H522 lung
NCI-H460 lung = tested on: NCI-H460 lung
SK-MEL-2 melanoma = tested on: SK-MEL-2 melanoma
SW-620 colon = tested on: SW-620 colon
BT-549 breast = tested on: BT-549 breast

Row | Structure (SMILES) | TGI (HCT-15 colon) [µM] | TGI (K-562 leukemia) | TGI (OVCAR-3 ovarian) | TGI (SN12C renal) | TGI (HOP-62 NSCLC) [µM] | TGI (NCI-H522 lung) | TGI (NCI-H460 lung) [µM] | TGI (SK-MEL-2 melanoma) | TGI (SW-620 colon) [µM] | GI50 (HCT-15 colon) [µM] | GI50 (K-562 leukemia) [µM] | GI50 (NCI-H522 lung) | GI50 (NCI-H460 lung) [µM] | GI50 (SK-MEL-2 melanoma) [µM] | GI50 (SW-620 colon) [µM] | GI50 (SN12C renal) | GI50 (HOP-62 NSCLC) | GI50 (OVCAR-3 ovarian) [µM] | GI50 (BT-549 breast) [µM] | TGI (BT-549 breast) [µM]
1 | Cc1nnc2n1N=C(c1ccccc1)C(c1ccccc1)S2 (stereo not drawn) | > 100 | > 100 µM | > 100 µM | > 100 µM | > 100 | 57.7 µM | > 100 | > 100 µM | 26.8 |  |  |  |  |  |  |  |  |  |  | 
2 | COC(=O)C1CC(c2ccc(OC)c(OC)c2)OC1=O (mixture of isomers) | > 100 | > 100 µM | > 100 µM | > 100 µM | > 100 | > 100 µM | > 100 |  | > 100 |  |  |  |  |  |  |  |  |  |  | 
3 | COC1(OC)C2(Cl)C3=CCCC=C3C1(Cl)C(Cl)=C2Cl | > 100 |  | 43.8 µM | > 100 µM | 71.1 | 33 µM | > 100 | 36 µM | 36.9 |  |  |  |  |  |  |  |  |  |  | 
4 | Cc1cc(Cl)ccc1NC(=O)CCCC(=O)C1C/C(=N/O)CC/C1=N\O (stereo not drawn) | > 100 | > 100 µM | > 100 µM | > 100 µM | > 100 | > 100 µM | > 100 | > 100 µM | > 100 |  |  |  |  |  |  |  |  |  |  | 
5 | Cn1c(=O)oc2cc(C3CCC(=O)N3Cc3csc(-c4ccccc4)n3)ccc21 (stereo not drawn) | > 100 | > 100 µM |  | > 100 µM | > 100 | > 100 µM | > 100 | > 100 µM | > 100 |  |  |  |  |  |  |  |  |  |  | 
6 | CCOc1c(Br)cc(Br)cc1C=C(C#N)C#N | > 10 | > 10 µM | > 10 µM | > 10 µM | > 10 |  | > 10 | > 10 µM | > 10 |  |  |  |  |  |  |  |  |  |  | 
7 | Cc1cc(=O)[nH]c(NNC(C#N)c2cccc([N+](=O)[O-])c2)n1 (stereo not drawn) | > 100 | > 100 µM | > 100 µM | > 100 µM | > 100 | > 100 µM | > 100 | > 100 µM | > 100 |  |  |  |  |  |  |  |  |  |  | 
8 | CC(=O)[CH-]C(C)=O.CC(=O)[CH-]C(C)=O.[O-]c1ccccc1.[O-]c1ccccc1.[Ti+4] | > 100 | > 100 µM |  |  |  | > 100 µM | > 100 | > 100 µM | > 100 | > 100 | > 100 | > 100 µM | > 100 | > 100 | > 100 |  |  |  |  | 
9 | CC1CCC2C(C)C(=O)OC2C2(C)C(=O)C=CC12 (stereo not drawn) | > 10 | > 10 µM | > 10 µM | > 10 µM | > 10 | > 10 µM | > 10 | > 10 µM | > 10 |  |  |  |  |  |  |  |  |  |  | 
10 | OCC(O)C(O)C(O)C(/C=N\Nc1ncnc2c(Br)cc(Br)cc12)=N/Nc1ncnc2c(Br)cc(Br)cc12 (stereo not drawn) |  | 26.9 µM and > 100 µM | 16.5 µM and > 100 µM | 18.8 µM and > 100 µM |  | 24.9 µM and > 100 µM |  | 17.6 µM and > 100 µM | > 100 |  |  | 10.1 µM and 3.6 µM |  |  |  | 5.09 µM and 24.8 µM | 2.05 µM and 9.09 µM |  |  | 
11 | Cc1ccc(C2=CC(=O)c3ccccc3C2=O)n1-c1ccccc1 |  | > 100 µM | > 100 µM | > 100 µM | > 100 | > 100 µM | > 100 |  | > 100 |  |  |  |  |  |  |  |  |  |  | 
12 | O=c1[nH]ccc(CNC23CC4CC(CC(C4)C2)C3)c1O | > 100 | > 100 µM | > 100 µM | > 100 µM | > 100 | 52.7 µM | > 100 | > 100 µM | > 100 |  |  |  |  |  |  |  |  |  |  | 
13 | CN1CCCC2[C@@H]3CCC4c5nonc5CC[C@]4(C)C3CC[C@@]21C (stereo partly drawn) | > 100 | > 100 µM |  | > 100 µM |  | > 100 µM | > 100 | > 100 µM | > 100 |  |  |  |  |  |  |  |  |  |  | 
14 | c1cnc2c(c1)-n1cccc1C1(CCCCC1)NN2 | > 100 | > 100 µM | > 100 µM | > 100 µM | > 100 | > 100 µM | > 100 | > 100 µM | > 100 |  |  |  |  |  |  |  |  |  |  | 
15 | O=c1c2cccnc2ncn1CCCN1CCCCC1 |  | > 100 µM | > 100 µM | > 100 µM | > 100 | > 100 µM | > 100 | > 100 µM | > 100 |  |  |  |  |  |  |  |  |  |  | 
16 | O=c1c(Cc2ccccc2)c(O)cc2n1CCC2 | > 100 | > 100 µM | > 100 µM | > 100 µM | > 100 | > 100 µM | > 100 |  | > 100 |  |  |  |  |  |  |  |  |  |  | 
17 | CC(C)(C)C#COC(=O)c1ccccc1 | > 100 | > 100 µM | > 100 µM | > 100 µM | > 100 | > 100 µM | > 100 | > 100 µM | > 100 |  |  |  |  |  |  |  |  |  |  | 

Row | Structure (SMILES) | TGI (HCT-15 colon) [µM] | TGI (K-562 leukemia) | TGI (OVCAR-3 ovarian) | TGI (SN12C renal) | TGI (HOP-62 NSCLC) [µM] | TGI (NCI-H522 lung) | TGI (NCI-H460 lung) [µM] | TGI (SK-MEL-2 melanoma) | TGI (SW-620 colon) [µM] | GI50 (HCT-15 colon) [µM] | GI50 (K-562 leukemia) [µM] | GI50 (NCI-H522 lung) | GI50 (NCI-H460 lung) [µM] | GI50 (SK-MEL-2 melanoma) [µM] | GI50 (SW-620 colon) [µM] | GI50 (SN12C renal) | GI50 (HOP-62 NSCLC) | GI50 (OVCAR-3 ovarian) [µM] | GI50 (BT-549 breast) [µM] | TGI (BT-549 breast) [µM]
18 | O=C1CC23CCCCCCCCCCC2(C1)CC(=O)C3 (stereo not drawn) | > 100 | 73.3 µM | 41.5 µM | 38.6 µM |  | 45 µM | > 100 | 42.9 µM | > 100 |  |  |  |  |  |  |  |  |  |  | 
19 | COc1ccc(-c2ccc(C3CC(c4ccccc4)=NN3)o2)c([N+](=O)[O-])c1 (stereo not drawn) | > 100 | > 100 µM | > 100 µM | > 100 µM | > 100 | > 100 µM | > 100 |  | > 100 | 37.4 | 34.5 | 58.4 µM | 36.5 |  | 47.5 | 56.4 µM | 52.7 µM | 29.8 | 47.4 | > 100
20 | C1=CC(=P(c2ccccc2)(c2ccccc2)c2ccccc2)C=C1 | > 100 | 11.3 µM | 23.7 µM | 43.4 µM | 41.6 | 10.1 µM | 26 | 30.3 µM | 56 |  |  |  |  |  |  |  |  |  |  | 
21 | O=C1c2cccc3cccc(c23)C(=O)N1CCCCCN1CCN(CCN=c2cc3n(-c4ccc(Cl)cc4)c4ccccc4nc-3cc2Nc2ccc(Cl)cc2)CC1 | 37.5 | 33.3 µM | 3.4 µM | 26.4 µM | 23.5 |  | > 50 |  | > 50 | 9.28 | 6.92 |  | 13.2 |  | 15.3 | 10.4 µM | 8.63 µM | 1.07 | 22.2 | > 50
22 | O=C(CC1=Nc2nnc(CCCCCCCc3nnc4n3C(=O)C(CC(=O)c3ccc5ccccc5c3)=N4)n2C1=O)c1ccc2ccccc2c1 | > 100 | > 100 µM | > 100 µM | > 100 µM | > 100 | > 100 µM | > 100 | > 100 µM | > 100 |  |  |  |  |  |  |  |  |  |  | 
23 | COc1ccc(-c2nc3ccccc3s2)cc1OC | > 100 | > 100 µM |  | > 100 µM | > 100 |  | 59.8 | > 100 µM | > 100 |  |  |  |  |  |  |  |  |  |  | 57.6
24 | Cc1cc2c(c(C(=O)O)c1C)-c1cccc(Cl)c1C2=O | > 100 | > 100 µM | > 100 µM | > 100 µM | > 100 | > 100 µM | > 100 | > 100 µM | > 100 |  |  |  |  |  |  |  |  |  |  | 
25 | c1ccc2c(c1)[nH]c1c2nc2ccccn21 | > 100 | > 100 µM | 59.8 µM and > 100 µM | > 100 µM | > 100 | > 100 µM | > 100 | > 100 µM | > 100 |  |  |  |  |  |  |  |  |  |  | 
26 | Cc1c(C)c([N+](=O)[O-])c2c(c1N)C(=O)c1ccccc1C2=O | > 100 | > 100 µM | > 100 µM | > 100 µM | > 100 | > 100 µM |  | > 100 µM | > 100 |  |  |  |  |  |  |  |  |  |  | 
27 | CC(=O)N1[C@H](C(=O)O)CS[C@H]1c1ccc(F)cc1 | > 100 | > 100 µM | > 100 µM | > 100 µM | > 100 |  | > 100 |  | > 100 |  |  |  |  |  |  |  |  |  |  | 
28 | CCN(CC)C(=S)SSC(C)C | 65.4 |  |  | 30.5 µM | 86.7 | 1.34 µM |  | 62 µM | 14 | 22 |  | 0.0295 µM |  | 23.3 | 3.01 | 14.3 µM | 24.7 µM |  | 13.4 | 30.5
29 | Cc1cccc(C)c1NC(=O)C(=O)Cc1nc2ccccc2s1 | > 100 | > 100 µM | > 100 µM | > 100 µM | > 100 | > 100 µM | > 100 | > 100 µM | > 100 |  |  |  |  |  |  |  |  |  |  | 
30 | COc1ccc(-c2ccc(CC(=O)O)cc2)cc1OC |  | > 100 µM | > 100 µM | > 100 µM | > 100 | > 100 µM | > 100 | > 100 µM | > 100 |  |  |  |  |  |  |  |  |  |  | 
31 | CC(=O)Nc1ccc(C2CC(c3ccc([N+](=O)[O-])cc3)=Nc3ccccc3S2)cc1 (stereo not drawn) | 37.2 | 42 µM | 67.4 µM | 33 µM | 50.8 |  | 34.3 | 32.9 µM | 32.3 |  |  |  |  |  |  |  |  |  |  | 
32 | COc1ccc(-n2cc(-c3ccc(OC)c(OC)c3)[nH]c2=O)cc1 | > 100 | > 100 µM | > 100 µM | > 100 µM | > 100 | > 100 µM | > 100 | > 100 µM | > 100 | > 100 | > 100 | > 100 µM | > 100 | > 100 | > 100 | > 100 µM | > 100 µM | > 100 |  | 
33 | CN(C)C(=S)/N=c1\ss/c(=N\C(=S)N(C)C)n1-c1cccc(Cl)c1 | > 100 | > 100 µM | > 100 µM | > 100 µM | > 100 | > 100 µM | > 100 | > 100 µM | > 100 |  |  |  |  |  |  |  |  |  |  | 
